Bounds are passed on as bounds.

In the first test the target is T1, Adenosine receptor A1 (Homo sapiens) (UniProt P30542).
T1 sequence (whole entry): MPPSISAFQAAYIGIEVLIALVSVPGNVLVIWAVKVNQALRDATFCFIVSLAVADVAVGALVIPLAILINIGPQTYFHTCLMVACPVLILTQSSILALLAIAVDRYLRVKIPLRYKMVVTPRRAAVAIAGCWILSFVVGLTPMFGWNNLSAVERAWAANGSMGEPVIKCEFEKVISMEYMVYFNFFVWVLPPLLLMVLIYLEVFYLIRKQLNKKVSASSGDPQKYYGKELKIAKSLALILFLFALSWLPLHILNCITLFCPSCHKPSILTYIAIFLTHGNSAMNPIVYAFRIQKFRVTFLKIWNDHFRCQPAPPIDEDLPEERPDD
The test is described as follows: Displacement of [3H]DPCPX from human adenosine A1 receptor expressed in CHO cells at 2000 nM by liquid scintillation counting. The format is cell-based. (Loss of bound radioactivity is the signal in a displacement assay; it reports binding, not function.)
As to `COCCOc1ccc(N2CCN(CCn3ncc4c3nc(N)n3nc(-c5ccco5)nc43)CC2)cc1` [PRELADENANT], the Activity was found to be 30%.

A further test addresses T2, Adenosine receptor A1 (Homo sapiens, UniProt P30542).
T2 sequence (P30542 whole entry): T1 sequence (whole entry)
Put plainly: Displacement of [3H]DPCPX from human adenosine A1 receptor expressed in CHO cells by liquid scintillation counting. The format is cell-based.
By Ki is commonly meant a dissociation constant, usually derived from enzyme kinetics or from competition with a known ligand. Regarding `Cc1nc(-c2sc(NC(=O)CC(C)C)nc2-c2ccccc2)no1`, affinity was put at a Ki of 82 nM.
The same measure, in the same setting: under `Cc1noc(-c2sc(NC(=O)CC(C)C)nc2-c2ccccc2)n1` stands 27 nM; under `CCOCc1sc(NC(=O)c2ccco2)nc1-c1ccccc1`, 92 nM; under `CCCC(=O)c1sc(NC(=O)c2ccco2)nc1-c1ccccc1`, 90 nM.
The molecule `Cc1nc(-c2sc(NC(=O)Cc3ccccc3)nc2-c2ccccc2)no1` registered a Ki of 260 nM. This Ki lies about 2.9-fold higher than the previous one.
Same read-out and setting: under `CCn1nnc(-c2sc(NC(=O)Cc3ccc(OC)c(OC)c3)nc2-c2ccccc2)n1` stands 1600 nM; under `Cc1nc(-c2sc(NC(=O)c3ccco3)nc2-c2ccccc2)no1`, 780 nM.
`COCCOc1ccc(N2CCN(CCn3ncc4c3nc(N)n3nc(-c5ccco5)nc43)CC2)cc1` [PRELADENANT] yielded a Ki of over 1000 nM.
On the same count and under the same terms, under `Cc1noc(-c2sc(NC(=O)c3ccco3)nc2-c2ccccc2)n1` stands 270 nM; under `Cc1noc(-c2sc(NC(=O)C3CC3)nc2-c2ccccc2)n1`, 41 nM; under `CCOC(=O)c1sc(NC(=O)c2ccco2)nc1-c1ccccc1`, 95 nM.
In turn, `O=C(Nc1nc(-c2ccccc2)c(-c2ncon2)s1)c1ccccc1` gave a Ki of 300 nM.
With `Cc1noc(-c2sc(NC(=O)c3ccccc3)nc2-c2ccccc2)n1`, the Ki was found to be 180 nM.
The same measure, in the same setting: with `CCn1c(=O)c2c(nc(/C=C/c3ccc(OC)c(OC)c3)n2C)n(CC)c1=O` [ISTRADEFYLLINE] the figure was 3000 nM; with `O=C(Nc1nc(-c2ccccc2)c(-c2ncon2)s1)C1CC1`, 310 nM.
Still for that read-out and setting: with `O=C(Nc1nc(-c2ccccc2)c(-c2ncon2)s1)c1ccco1` the figure was 230 nM; with `CCn1nnc(-c2sc(NC(=O)Cc3ccccc3)nc2-c2ccccc2)n1`, 1200 nM.
Still for that read-out and setting: with `CC(C)CC(=O)Nc1nc(-c2ccccc2)c(-c2ncon2)s1` the figure was 77 nM; with `CCn1nnc(-c2sc(NC(=O)C3CC3)nc2-c2ccccc2)n1`, 210 nM; with `CCn1nnc(-c2sc(NC(=O)c3ccco3)nc2-c2ccccc2)n1`, 650 nM.
`Cc1nc(-c2sc(NC(=O)C3CC3)nc2-c2ccccc2)no1` showed a Ki of 150 nM. Against the preceding molecule, the Ki is about 4.3-fold lower.
On to `CC(=O)Nc1nc(-c2ccccc2)c(-c2nc(C)no2)s1`, for which affinity was put at a Ki of 370 nM.
With `O=C(Cc1ccccc1)Nc1nc(-c2ccccc2)c(-c2ncon2)s1`, the affinity, expressed as Ki, was 1700 nM. This Ki is about 4.6-fold higher than that of the molecule before.
Same read-out and setting: under `Cc1noc(-c2sc(NC(=O)Cc3ccccc3)nc2-c2ccccc2)n1` stands 340 nM.

In a further test the test system is Mus musculus. Put plainly: In-vivo displacement of [3H]SCH442416 from adenosine A2A receptor in po dosed NMRI mouse by liquid scintillation counting. Type of test: functional.
The ED50 is the midpoint of the dose-response relation. Turning to `Cc1nc(-c2sc(NC(=O)C3CC3)nc2-c2ccccc2)no1`, the 50% effect level (ED50) was put at a dose of 5.8 mg/kg.

For another test, the target named is T1, Adenosine receptor A1 (Homo sapiens). The test is described as follows: Displacement of [3H]DPCPX from human adenosine A1 receptor expressed in CHO cells at 10 uM by liquid scintillation counting. The format is cell-based.
For `CC(=O)Nc1nc(-c2ccccc2)c(-c2noc(C)n2)s1`, the Activity is 76%.
Regarding `CCn1nnc(-c2sc(NC(=O)c3ccccc3)nc2-c2ccccc2)n1`, the Activity was determined as 65%.
`Cc1nc(-c2sc(NC(=O)c3ccccc3)nc2-c2ccccc2)no1` registered an Activity of 45%.

The target in a further test is T3, Adenosine receptor A2a (Homo sapiens, UniProt P29274).
T3 sequence (P29274 whole entry): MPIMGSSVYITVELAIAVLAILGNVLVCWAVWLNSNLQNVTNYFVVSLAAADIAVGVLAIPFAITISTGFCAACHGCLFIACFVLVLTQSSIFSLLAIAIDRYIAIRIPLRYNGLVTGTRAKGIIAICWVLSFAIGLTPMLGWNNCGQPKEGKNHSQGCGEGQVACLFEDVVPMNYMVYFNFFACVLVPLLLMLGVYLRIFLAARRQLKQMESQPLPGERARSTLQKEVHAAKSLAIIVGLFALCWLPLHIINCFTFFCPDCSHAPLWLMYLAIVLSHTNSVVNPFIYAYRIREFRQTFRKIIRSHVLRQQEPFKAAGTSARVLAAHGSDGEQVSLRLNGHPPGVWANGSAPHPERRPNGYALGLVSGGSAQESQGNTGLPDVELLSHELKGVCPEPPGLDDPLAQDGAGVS
Description: Displacement of [3H]ZM241385 from human adenosine A2A receptor expressed in buculovirus system by liquid scintillation counting
The molecule `Cc1nc(-c2sc(NC(=O)CC(C)C)nc2-c2ccccc2)no1` yielded a Ki of 33 nM.
`Cc1noc(-c2sc(NC(=O)CC(C)C)nc2-c2ccccc2)n1` displayed a Ki of 48 nM.
In the case of `CC(=O)Nc1nc(-c2ccccc2)c(-c2noc(C)n2)s1`, the Ki was determined as 190 nM.
On the same count and under the same terms, under `CCOCc1sc(NC(=O)c2ccco2)nc1-c1ccccc1` stands 190 nM; under `CCCC(=O)c1sc(NC(=O)c2ccco2)nc1-c1ccccc1`, 62 nM.
In turn, `Cc1nc(-c2sc(NC(=O)Cc3ccccc3)nc2-c2ccccc2)no1` had a Ki of 25 nM.
Still for that read-out and setting: with `CCn1nnc(-c2sc(NC(=O)Cc3ccc(OC)c(OC)c3)nc2-c2ccccc2)n1` the figure was 45 nM; with `Cc1nc(-c2sc(NC(=O)c3ccco3)nc2-c2ccccc2)no1`, 700 nM; with `COCCOc1ccc(N2CCN(CCn3ncc4c3nc(N)n3nc(-c5ccco5)nc43)CC2)cc1` [PRELADENANT], 5 nM.
Same read-out and setting: with `Cc1noc(-c2sc(NC(=O)c3ccco3)nc2-c2ccccc2)n1` the figure was 200 nM; with `Cc1noc(-c2sc(NC(=O)C3CC3)nc2-c2ccccc2)n1`, 12 nM; with `CCn1nnc(-c2sc(NC(=O)c3ccccc3)nc2-c2ccccc2)n1`, 220 nM.
`CCOC(=O)c1sc(NC(=O)c2ccco2)nc1-c1ccccc1`: the Ki was 13 nM.
On the same count and under the same terms, under `O=C(Nc1nc(-c2ccccc2)c(-c2ncon2)s1)c1ccccc1` stands 330 nM; under `Cc1noc(-c2sc(NC(=O)c3ccccc3)nc2-c2ccccc2)n1`, 190 nM; under `O=C(Nc1nc(-c2ccccc2)c(-c2ncon2)s1)C1CC1`, 120 nM.
The molecule `O=C(Nc1nc(-c2ccccc2)c(-c2ncon2)s1)c1ccco1` registered a Ki of 410 nM. Against the preceding molecule, the Ki is about 3.4-fold higher.
On the same count and under the same terms, under `CCn1nnc(-c2sc(NC(=O)Cc3ccccc3)nc2-c2ccccc2)n1` stands 460 nM; under `CC(C)CC(=O)Nc1nc(-c2ccccc2)c(-c2ncon2)s1`, 340 nM.
Molecule `CCn1nnc(-c2sc(NC(=O)C3CC3)nc2-c2ccccc2)n1` returned a Ki of 77 nM.
The same measure, in the same setting: under `CCn1nnc(-c2sc(NC(=O)c3ccco3)nc2-c2ccccc2)n1` stands 94 nM.
The same measure, in the same setting: under `Cc1nc(-c2sc(NC(=O)C3CC3)nc2-c2ccccc2)no1` stands 28 nM; under `CC(=O)Nc1nc(-c2ccccc2)c(-c2nc(C)no2)s1`, 110 nM; under `O=C(Cc1ccccc1)Nc1nc(-c2ccccc2)c(-c2ncon2)s1`, 710 nM.
On the same count and under the same terms, with `N#Cc1sc(NC(=O)c2ccco2)nc1-c1ccccc1` the figure was 290 nM.
`Cc1noc(-c2sc(NC(=O)Cc3ccccc3)nc2-c2ccccc2)n1` registered a Ki of 57 nM.
The same measure, in the same setting: under `Cc1nc(-c2sc(NC(=O)c3ccccc3)nc2-c2ccccc2)no1` stands 83 nM.

The next test relates to Mus musculus. Put plainly: Reversal of haloperidol-induced hypolocomotion in po dosed NMRI mouse model of Parkinson's disease measured for 20 mins. The format is functional.
In the case of `COCCOc1ccc(N2CCN(CCn3ncc4c3nc(N)n3nc(-c5ccco5)nc43)CC2)cc1` [PRELADENANT], the ED50 was 0.4 mg/kg.
As to `CCn1c(=O)c2c(nc(/C=C/c3ccc(OC)c(OC)c3)n2C)n(CC)c1=O` [ISTRADEFYLLINE], the ED50 was 0.13 mg/kg.
Turning to `Cc1nc(-c2sc(NC(=O)C3CC3)nc2-c2ccccc2)no1`, the Activity entry is “Dose-dependent effect” and the ED50 was found to be 7 mg/kg.

A further test has as its target T3, Adenosine receptor A2a. Put plainly: Displacement of [3H]ZM241385 from human adenosine A2A receptor expressed in buculovirus system at 10 uM by liquid scintillation counting.
The molecule `CCS(=O)(=O)c1sc(NC(=O)c2ccco2)nc1-c1ccccc1` registered an Activity of 25%.
Still for that read-out and setting: with `O=C(Nc1nc(-c2ccccc2)c(C(=O)O)s1)c1ccco1` the figure was 0%; with `CCNC(=O)c1sc(NC(=O)c2ccco2)nc1-c1ccccc1`, 37%.

The values above are taken from ChEMBL document CHEMBL1221257, “Hit-to-lead optimization of a series of carboxamides of ethyl 2-amino-4-phenylthiazole-5-carboxylates as novel adenosine A2A receptor antagonists” (Bioorg Med Chem Lett, 2010).
